Starred links: 1 amine or outer side, 2 acyl side, 3 side chain; linkers in the order of their positions; H or OH if unused. Positions of bridges follow the written chain, without caps; N, C: chain ends. Non-standard residues stand in square brackets, D forms with d. Residues, ends and D or L forms follow the SMILES beside them. *: point of attachment. hPhe(3-Cl-4-CF3) = N[C@@H](CCc1ccc(C(F)(F)F)c(Cl)c1)C(=O)O; X12 = CN([C@@H](Cc1ccc(C(F)(F)F)nc1)C(=O)[*:2])[*:1]; NMePhe(4-CF3) = CN[C@@H](Cc1ccc(C(F)(F)F)cc1)C(=O)O; X82 = O=C([C@H](Cc1cccc(OC(F)(F)F)c1)N[*:1])[*:2]; hPhe(4-CF3) = N[C@@H](CCc1ccc(C(F)(F)F)cc1)C(=O)O; NMeAla(4-thiazolyl) = CN[C@@H](Cc1cscn1)C(=O)O; X17 = Cc1cncc(C[C@@H](C(=O)[*:2])N(C)[*:1])c1; NMePhe(4-Cl) = CN[C@@H](Cc1ccc(Cl)cc1)C(=O)O; NMePhe(3-F) = CN[C@@H](Cc1cccc(F)c1)C(=O)O; Phe(3-Cl) = N[C@@H](Cc1cccc(Cl)c1)C(=O)O; X22 = O=C([C@@H]1Cc2ccccc2N1[*:1])[*:2]; NMeGly(cPent) = CN[C@H](C(=O)O)C1CCCC1; Phe(3-I) = N[C@@H](Cc1cccc(I)c1)C(=O)O; NMeCha = CN[C@@H](CC1CCCCC1)C(=O)O; NMeChg = CN[C@H](C(=O)O)C1CCCCC1; NMeF = CN[C@@H](Cc1ccccc1)C(=O)O; N(CH2CH2)2CF2 = FC1(F)CCN(*)CC1; NMeD = CN[C@@H](CC(=O)O)C(=O)O; NMeL = CN[C@@H](CC(C)C)C(=O)O; NMeV = CN[C@H](C(=O)O)C(C)C; d(β3hA) = C[C@@H](N)CC(=O)O; Azetidin(1-yl) = C1CN(*)C1; NMeA = CN[C@@H](C)C(=O)O; NMeAib = CNC(C)(C)C(=O)O; Nle = CCCC[C@H](N)C(=O)O; Piperidide = C1CCN(*)CC1; Pyrrolidide = C1CCN(*)C1; dNMeA = CN[C@H](C)C(=O)O; Ac5c = NC1(C(=O)O)CCCC1; Aze = O=C(O)[C@@H]1CCN1; Nva = CCC[C@H](N)C(=O)O; CH2CMe2OH = CC(C)(O)C*; Ac3c = NC1(C(=O)O)CC1; X47 = Fc1cncc(C*)c1; NEtG = CCNCC(=O)O; Sar = CNCC(=O)O
These molecules were tested against T1, Kras and SOS1 (biotin-tagged human Kras loaded with GDP, His-tagged human SOS1) (Homo sapiens, UniProt P01116, G12D) (assay: Protein-protein interaction inhibition between Kras and SOS1 (KrasGl2D-SOS PPI) using AlphaScreen). Details: AlphaScreen; biotin-tagged human Kras loaded with GDP, His-tagged human SOS1; read-out: KRAS G12D-SOS PPI IC50.
T1 construct: made in house; host or cells: E. coli (stated for Kras only)
Format: binding
How it was run: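 Kras was produced in E. coli, purified, then loaded with GDP. It was paired via streptavidin acceptor beads with His-SOS1 held on nickel donor beads, and proximity signal at 520-620 nm was read after 680 nm illumination.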

T1 sequence (P01116 1-188 isoform P01116-2 G12D): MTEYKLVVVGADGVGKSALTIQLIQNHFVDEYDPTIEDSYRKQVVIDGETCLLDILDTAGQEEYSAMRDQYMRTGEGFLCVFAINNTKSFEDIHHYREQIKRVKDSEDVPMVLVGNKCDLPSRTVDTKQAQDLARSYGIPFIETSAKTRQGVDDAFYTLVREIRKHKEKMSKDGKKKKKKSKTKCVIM

Structure (SMILES)	IC50 [nM]
CC[C@H](C)[C@@H]1NC(=O)[C@H](CC(C)C)N(C)C(=O)C[C@@H](C(=O)N2CCCCC2)N(C)C(=O)[C@H](C(C)C)N(C)C(=O)C2(CC2)NC(=O)[C@@H]2CCCN2C(=O)[C@H](CCc2ccc(C(F)(F)F)c(Cl)c2)NC(=O)CN(C)C(=O)[C@H](CC2CCCCC2)N(C)C(=O)CN(C)C(=O)CN(C)C1=O [Compound 468] ([NMeL]I[Sar][Sar][NMeCha][Sar][hPhe(3-Cl-4-CF3)]P[Ac3c][NMeV][NMeD]-Piperidide; lactam N-11)	2.5
CC[C@H](C)[C@@H]1NC(=O)[C@H](C)N(C)C(=O)C[C@@H](C(=O)N2CCCCC2)NC(=O)[C@H](CC(C)C)N(C)C(=O)[C@H](Cc2ccccc2)N(C)C(=O)[C@H](CC(C)C)NC(=O)[C@H](Cc2cccc(OC(F)(F)F)c2)NC(=O)CN(C)C(=O)[C@H](Cc2ccc(Cl)cc2)N(C)C(=O)CN(C)C(=O)CN(C)C1=O [Compound 473] ([NMeA]I[Sar][Sar][NMePhe(4-Cl)][Sar][X82]L[NMeF][NMeL]D-Piperidide; lactam N-11)	410
CC[C@H](C)[C@@H]1NC(=O)[C@H](CC(C)C)N(C)C(=O)C[C@@H](C(=O)N2CCCCC2)N(C)C(=O)[C@H](C2CCCCC2)N(C)C(=O)C2(CCCC2)NC(=O)[C@H](Cc2cncc(C)c2)N(C)C(=O)[C@H](CCc2ccc(C(F)(F)F)c(Cl)c2)NC(=O)CN(C)C(=O)[C@H](CC2CCCCC2)N(C)C(=O)[C@@H]2CCN2C(=O)CN(C)C1=O [Compound 477] ([NMeL]I[Sar][Aze][NMeCha][Sar][hPhe(3-Cl-4-CF3)][X17][Ac5c][NMeChg][NMeD]-Piperidide; lactam N-11)	4.3
CC[C@H](C)[C@@H]1NC(=O)[C@H](CC(C)C)N(C)C(=O)C[C@@H](C(=O)N2CCCCC2)N(C)C(=O)[C@H](C2CCCCC2)N(C)C(=O)C2(CCCC2)NC(=O)[C@H](Cc2ccc(C(F)(F)F)nc2)N(C)C(=O)[C@H](CCc2ccc(C(F)(F)F)c(Cl)c2)NC(=O)CN(C)C(=O)[C@H](CC2CCCCC2)N(C)C(=O)[C@@H]2CCN2C(=O)[C@H](C)N(C)C1=O [Compound 479] ([NMeL]I[NMeA][Aze][NMeCha][Sar][hPhe(3-Cl-4-CF3)][X12][Ac5c][NMeChg][NMeD]-Piperidide; lactam N-11)	300
CC[C@H](C)[C@@H]1NC(=O)[C@H](C)N(C)C(=O)C[C@@H](C)NC(=O)[C@H](C2CCCC2)N(C)C(=O)C2(CCCC2)NC(=O)[C@@H]2CCCN2C(=O)[C@H](CCc2ccc(C(F)(F)F)c(Cl)c2)NC(=O)[C@@H](C)N(C)C(=O)[C@H](Cc2ccccc2)N(C)C(=O)CN(C)C(=O)CN(C)C1=O [Compound 482] (cyclo([Ac5c][NMeGly(cPent)][d(β3hA)][NMeA]I[Sar][Sar][NMeF][dNMeA][hPhe(3-Cl-4-CF3)]P))	170
CCCC[C@@H]1NC(=O)[C@H](Cc2cccc(I)c2)NC(=O)CN(C)C(=O)[C@H](Cc2ccc(Cl)cc2)N(C)C(=O)CN(C)C(=O)CN(C)C(=O)[C@H]([C@@H](C)CC)NC(=O)[C@H](CC(C)C)N(C)C(=O)C[C@@H](C(=O)N2CCCCC2)N(C)C(=O)[C@H](CC(C)C)NC(=O)[C@H](Cc2cccc(F)c2)N(C)C1=O [Compound 483] ([NMeL]I[Sar][Sar][NMePhe(4-Cl)][Sar][Phe(3-I)][Nle][NMePhe(3-F)]L[NMeD]-Piperidide; lactam N-11)	17
CC[C@H](C)[C@@H]1NC(=O)[C@H](CC(C)C)N(C)C(=O)C[C@@H](C(=O)N2CCCCC2)N(C)C(=O)[C@H](C(C)C)N(C)C(=O)[C@@H](C)NC(=O)[C@H](CC(=O)N2CCC(F)(F)CC2)N(C)C(=O)[C@H](CCc2ccc(C(F)(F)F)c(Cl)c2)NC(=O)CN(C)C(=O)[C@H](CC2CCCCC2)N(C)C(=O)CN(C)C(=O)CN(C)C1=O [Compound 493] ([NMeL]I[Sar][Sar][NMeCha][Sar][hPhe(3-Cl-4-CF3)][NMeD](N(CH2CH2)2CF2)[dA][NMeV][NMeD]-Piperidide; lactam N-11)	300
CCC[C@@H]1NC(=O)[C@H](CC(C)C)N(C)C(=O)C[C@@H](C(=O)N2CCCCC2)N(C)C(=O)[C@H](C2CCCCC2)N(C)C(=O)C2(CCCC2)NC(=O)[C@@H]2CCCN2C(=O)[C@H](CCc2ccc(C(F)(F)F)c(Cl)c2)NC(=O)CN(C)C(=O)[C@H](CC2CCCCC2)N(C)C(=O)CN(C)C(=O)CN(C)C1=O [Compound 495] ([NMeL][Nva][Sar][Sar][NMeCha][Sar][hPhe(3-Cl-4-CF3)]P[Ac5c][NMeChg][NMeD]-Piperidide; lactam N-11)	3.2
CCCC[C@@H]1NC(=O)[C@H](Cc2cccc(I)c2)NC(=O)CN(C)C(=O)[C@H](Cc2ccc(Cl)cc2)N(C)C(=O)CN(C)C(=O)CN(C)C(=O)[C@H]([C@@H](C)CC)NC(=O)[C@H](CC(C)C)N(C)C(=O)C[C@@H](C(=O)N2CCCCC2)N(C)C(=O)[C@H](CC(C)C)NC(=O)[C@H](Cc2ccc(C(F)(F)F)cc2)N(C)C1=O [Compound 498] ([NMeL]I[Sar][Sar][NMePhe(4-Cl)][Sar][Phe(3-I)][Nle][NMePhe(4-CF3)]L[NMeD]-Piperidide; lactam N-11)	49
CC[C@H](C)[C@@H]1NC(=O)[C@H](C)N(C)C(=O)C[C@@H](C(=O)N2CCCC2)NC(=O)[C@H](CC(C)C)NC(=O)[C@H](Cc2ccccc2)N(C)C(=O)[C@H](CC(C)C)NC(=O)[C@H](Cc2cccc(Cl)c2)NC(=O)CN(C)C(=O)[C@H](Cc2ccc(Cl)cc2)N(C)C(=O)CN(C)C(=O)CN(C)C1=O [Compound 499] ([NMeA]I[Sar][Sar][NMePhe(4-Cl)][Sar][Phe(3-Cl)]L[NMeF]LD-Pyrrolidide; lactam N-11)	85
CC[C@H](C)[C@@H]1NC(=O)[C@H](CC(C)C)N(C)C(=O)C[C@@H](C(=O)N2CCCCC2)N(C)C(=O)[C@H](C2CCCCC2)N(C)C(=O)C2(CCCC2)NC(=O)[C@H](Cc2cscn2)N(C)C(=O)[C@H](CCc2ccc(C(F)(F)F)c(Cl)c2)NC(=O)CN(C)C(=O)[C@H](CC2CCCCC2)N(C)C(=O)CN(C)C(=O)CN(C)C1=O [Compound 500] ([NMeL]I[Sar][Sar][NMeCha][Sar][hPhe(3-Cl-4-CF3)][NMeAla(4-thiazolyl)][Ac5c][NMeChg][NMeD]-Piperidide; lactam N-11)	4.8
CC[C@H](C)[C@@H]1NC(=O)[C@H](C)N(C)C(=O)C[C@@H](C(=O)N2CCCC2)NC(=O)[C@H](CC(C)C)N(C)C(=O)[C@H](Cc2ccccc2)N(C)C(=O)[C@H](COCC(C)(C)O)NC(=O)[C@H](CCc2ccc(C(F)(F)F)cc2)NC(=O)CN(C)C(=O)[C@H](Cc2ccc(Cl)cc2)N(C)C(=O)CN(C)C(=O)CN(C)C1=O [Compound 502] ([NMeA]I[Sar][Sar][NMePhe(4-Cl)][Sar][hPhe(4-CF3)]S(CH2CMe2OH)[NMeF][NMeL]D-Pyrrolidide; lactam N-11)	47
CC[C@H](C)[C@@H]1NC(=O)[C@H](CC(C)C)N(C)C(=O)C[C@@H](C)NC(=O)[C@H](C(C)C)N(C)C(=O)C2(CCCC2)NC(=O)[C@@H]2CCCN2C(=O)[C@H](CCc2ccc(C(F)(F)F)c(Cl)c2)NC(=O)CN(C)C(=O)[C@H](CC2CCCCC2)N(C)C(=O)CN(CC)C(=O)CN(C)C1=O [Compound 504] (cyclo([Ac5c][NMeV][d(β3hA)][NMeL]I[Sar][NEtG][NMeCha][Sar][hPhe(3-Cl-4-CF3)]P))	53
CC[C@H](C)[C@@H]1NC(=O)[C@H](C)N(C)C(=O)C[C@@H](C(=O)N2CCCCC2)N(C)C(=O)[C@H](C(C)C)N(C)C(=O)C(C)(C)N(C)C(=O)[C@@H]2CCCN2C(=O)[C@H](CCc2ccc(C(F)(F)F)c(Cl)c2)NC(=O)CN(C)C(=O)[C@H](CC2CCCCC2)N(C)C(=O)CN(C)C(=O)CN(C)C1=O [Compound 507] ([NMeA]I[Sar][Sar][NMeCha][Sar][hPhe(3-Cl-4-CF3)]P[NMeAib][NMeV][NMeD]-Piperidide; lactam N-11)	0.48
CC[C@H](C)[C@@H]1NC(=O)[C@H](CC(C)C)N(C)C(=O)C[C@@H](C(=O)N2CCCC2)NC(=O)[C@H](C(C)C)N(C)C(=O)C2(CCCC2)NC(=O)[C@@H]2CCCN2C(=O)[C@H](CCc2ccc(C(F)(F)F)c(Cl)c2)NC(=O)CN(C)C(=O)[C@H](CC2CCCCC2)N(C)C(=O)CN(C)C(=O)CN(C)C1=O [Compound 508] ([NMeL]I[Sar][Sar][NMeCha][Sar][hPhe(3-Cl-4-CF3)]P[Ac5c][NMeV]D-Pyrrolidide; lactam N-11)	12
CC[C@H](C)[C@@H]1NC(=O)[C@H](C)N(C)C(=O)C[C@@H](C(=O)N2CCCC2)NC(=O)[C@H](CC(C)C)N(C)C(=O)[C@H](Cc2ccccc2)N(C)C(=O)[C@H](COCc2cncc(F)c2)NC(=O)[C@H](CCc2ccc(C(F)(F)F)cc2)NC(=O)CN(C)C(=O)[C@H](Cc2ccc(Cl)cc2)N(C)C(=O)CN(C)C(=O)CN(C)C1=O [Compound 513] ([NMeA]I[Sar][Sar][NMePhe(4-Cl)][Sar][hPhe(4-CF3)]S(X47)[NMeF][NMeL]D-Pyrrolidide; lactam N-11)	46
CC[C@H](C)[C@@H]1NC(=O)[C@H](CC(C)C)N(C)C(=O)C[C@@H](C(=O)N2CCCCC2)N(C)C(=O)[C@H](C2CCCCC2)N(C)C(=O)C2(CCCC2)NC(=O)[C@@H]2Cc3ccccc3N2C(=O)[C@H](CCc2ccc(C(F)(F)F)c(Cl)c2)NC(=O)CN(C)C(=O)[C@H](CC2CCCCC2)N(C)C(=O)CN(C)C(=O)CN(C)C1=O [Compound 514] ([NMeL]I[Sar][Sar][NMeCha][Sar][hPhe(3-Cl-4-CF3)][X22][Ac5c][NMeChg][NMeD]-Piperidide; lactam N-11)	14
CC[C@H](C)[C@@H]1NC(=O)[C@H](CC(C)C)N(C)C(=O)C[C@@H](C(=O)N2CCC2)N(C)C(=O)[C@H](C2CCCC2)N(C)C(=O)C2(CCCC2)NC(=O)[C@@H]2CCCN2C(=O)[C@H](CCc2ccc(C(F)(F)F)c(Cl)c2)NC(=O)CN(C)C(=O)[C@H](CC2CCCCC2)N(C)C(=O)[C@@H]2CCN2C(=O)[C@H](C)N(C)C1=O [Compound 515] ([NMeL]I[NMeA][Aze][NMeCha][Sar][hPhe(3-Cl-4-CF3)]P[Ac5c][NMeGly(cPent)][NMeD]-{Azetidin(1-yl)}; lactam N-11)	0.55

— patent US12371454B2, “Cyclic peptide compound having Kras inhibitory action” (priority 2019, dated 2025)
